Earlier results as cited in PMC10920834, “Synthesis, anticancer activity, and molecular docking of half-sandwich iron(II) cyclopentadienyl complexes with maleimide and phosphine or phosphite ligands” (Scientific Reports, 2024).

Test system: PBM cells
Conditions: cited from earlier work

## O=C1C=CC(=O)[N-]1.[C-]#[O+].[Ru+2].c1cc[cH-]c1.c1ccc(P(c2ccccc2)c2ccccc2)cc1 [2a-Ru]
  cytotoxicity toward PBM cells of ruthenium analogues, in words: non-toxic
